Test systems include SK-OV-3 ovarian; SNB-75 CNS; HOP-92 NSCLC; SF-295 CNS; HCT-116 colon; UACC-257 melanoma; OVCAR-8 ovarian; SN12C renal.
Holding throughout (assay): NCI tumour cell line growth inhibition, 48 h

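Cultured in 96-well plates, cells were exposed to test compound for 48 hours across five concentrations. Abbreviation: GI50, concentration required for 50% inhibition of growth. TGI is the concentration that stops growth completely.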

Results on nine compounds are retold here after PubChem BioAssay (NCI).

Consider `COc1ccc(C2CC(c3cccc(Nc4ccnc5cc(Cl)ccc45)c3)=NN2c2ccc(Cl)cc2)cc1` (stereo not drawn), for which the GI50 is 15 µM in the experiment on SK-OV-3 ovarian; 12.5 µM in the experiment with SNB-75 CNS; 10.8 µM in the experiment on HOP-92 NSCLC; 5.8 µM in the experiment with SF-295 CNS; 2.27 µM in the experiment with HCT-116 colon; 6.4 µM with UACC-257 melanoma. Further, the GI50 in the experiment on OVCAR-8 ovarian is 5 µM; in the experiment on SN12C renal, 13 µM. Also, the TGI worked out at 99.3 µM in the experiment on SK-OV-3 ovarian; 97.9 µM with SNB-75 CNS; 66.3 µM with HOP-92 NSCLC; 23.3 µM in the experiment with SF-295 CNS; 19.2 µM with HCT-116 colon; 51.4 µM with UACC-257 melanoma. Besides, the results for the TGI in the experiment with OVCAR-8 ovarian and in the experiment on SN12C renal were 91 µM and more than 100 µM, respectively.

In the case of `COc1c(C)cnc(Cn2cnc3c(Cl)nc(N)nc32)c1C`, the GI50 was 0.23 µM in the experiment on SK-OV-3 ovarian; 3.13 µM in the experiment with SNB-75 CNS; 0.467 µM in the experiment with HOP-92 NSCLC; 0.0948 µM in the experiment on SF-295 CNS; 0.12 µM in the experiment with HCT-116 colon; 0.297 µM in the experiment on UACC-257 melanoma. Further, the values for the GI50 in the experiment with OVCAR-8 ovarian and in the experiment on SN12C renal were 0.323 µM and 0.336 µM, respectively. The TGI with SK-OV-3 ovarian was more than 70.6 µM; with SNB-75 CNS it was more than 100 µM; in the experiment with HOP-92 NSCLC, 2.8 µM; in the experiment with HCT-116 colon, more than 100 µM; in the experiment with UACC-257 melanoma it was 9.57 µM; in the experiment with OVCAR-8 ovarian, more than 100 µM. Besides, the TGI with SN12C renal was more than 100 µM.

For the compound `C#Cc1cccc(NC(=O)Nc2cccc(NC(=O)CCl)c2)c1`, the GI50 with SK-OV-3 ovarian is 46.5 µM; in the experiment on SNB-75 CNS, 8.67 µM; with HOP-92 NSCLC it was more than 82.5 µM; with SF-295 CNS, more than 82.5 µM; in the experiment on HCT-116 colon it was 20.9 µM; with UACC-257 melanoma, more than 82.5 µM. In addition, the GI50 with OVCAR-8 ovarian is 23.1 µM; with SN12C renal it was 17.3 µM. Also, the TGI in the experiment with SK-OV-3 ovarian, with SNB-75 CNS, in the experiment with HOP-92 NSCLC, with SF-295 CNS, with HCT-116 colon and in the experiment with UACC-257 melanoma was more than 82.5 µM throughout. Moreover, the TGI was more than 82.5 µM in the experiment with OVCAR-8 ovarian and 49.9 µM with SN12C renal.

Turning to `C=C1C(=O)O[C@H]2[C@H]1CC/C(Cn1cc(CNC(=O)c3cc4ccccc4[nH]3)nn1)=C\CC[C@@]1(C)O[C@@H]21`, the GI50 in the experiment on SK-OV-3 ovarian is 50.4 µM; with SNB-75 CNS it was 10.4 µM; in the experiment on HOP-92 NSCLC, 1.53 µM; with SF-295 CNS, 18.9 µM; in the experiment on HCT-116 colon, 1.59 µM; with UACC-257 melanoma it was 4 µM. Besides, the GI50 in the experiment with OVCAR-8 ovarian was 4.69 µM; with SN12C renal, 1.97 µM. The TGI in the experiment with SK-OV-3 ovarian was more than 100 µM; with SNB-75 CNS, 22.4 µM; with HOP-92 NSCLC it was 3.16 µM; with SF-295 CNS it was 39 µM; with HCT-116 colon it was 3.56 µM; in the experiment on UACC-257 melanoma, 16 µM. Also, the TGI was determined as 17.2 µM with OVCAR-8 ovarian and 4.66 µM in the experiment on SN12C renal.

Take `C=CC(=O)N1CC[C@@H](Oc2nc(Nc3ccc(N4CCC(N5CCN(C)CC5)CC4)cc3)c(C(N)=O)nc2CC)C1`: the GI50 with SK-OV-3 ovarian, in the experiment on SNB-75 CNS, in the experiment with HOP-92 NSCLC, with SF-295 CNS, with HCT-116 colon and with UACC-257 melanoma was more than 100 µM in each case. Besides, the GI50 in the experiment on OVCAR-8 ovarian and in the experiment with SN12C renal was more than 100 µM in each case. In addition, the TGI with SK-OV-3 ovarian, with SNB-75 CNS, in the experiment with HOP-92 NSCLC, in the experiment on SF-295 CNS, in the experiment on HCT-116 colon and in the experiment with UACC-257 melanoma was more than 100 µM throughout. In addition, the TGI with OVCAR-8 ovarian and with SN12C renal was more than 100 µM in each case.

As to `C[As](C)SCC(COC(=O)c1ccccc1)OC(=O)c1ccccc1` (stereo not drawn), the GI50 in the experiment on SK-OV-3 ovarian was 3.16 µM; in the experiment with SNB-75 CNS, 0.968 µM; in the experiment with HOP-92 NSCLC it was 0.216 µM; in the experiment with HCT-116 colon it was 0.0292 µM; with UACC-257 melanoma it was 0.066 µM; in the experiment with OVCAR-8 ovarian, 0.225 µM. In addition, in the experiment on SN12C renal, the GI50 is 0.23 µM. Also, the TGI in the experiment with SK-OV-3 ovarian came to 18.1 µM; in the experiment with SNB-75 CNS, 12.7 µM; in the experiment with HOP-92 NSCLC it was 1.74 µM; in the experiment with SF-295 CNS, 1.35 µM; with HCT-116 colon, 0.434 µM; with UACC-257 melanoma it was 1.51 µM. For the same compound, the values for the TGI in the experiment with OVCAR-8 ovarian and in the experiment with SN12C renal were 0.667 µM and 1.23 µM, respectively.

For `Cn1c([N+](=O)[O-])cnc1/C=C1\Oc2ccc(Cl)cc2C1=O`, the GI50 in the experiment with SK-OV-3 ovarian was 2.05 µM; in the experiment with SNB-75 CNS it was 0.63 µM; with HOP-92 NSCLC, 1.03 µM; with SF-295 CNS it was 1.72 µM; with HCT-116 colon, 0.247 µM; in the experiment with UACC-257 melanoma, 1.95 µM. Moreover, the results for the GI50 in the experiment on OVCAR-8 ovarian and with SN12C renal were 0.33 µM and 0.738 µM, respectively. Also, the TGI with SK-OV-3 ovarian came to 7.24 µM; with SNB-75 CNS, 2.27 µM; in the experiment with HOP-92 NSCLC, 4.12 µM; with SF-295 CNS it was 5.65 µM; in the experiment on HCT-116 colon, 0.793 µM; in the experiment on UACC-257 melanoma, 5.2 µM. In addition, in the experiment with SN12C renal, the TGI came out at 3.46 µM.

With `CCCCCCn1c(=N)n(CC(O)COc2cccc(C)c2)c2ccccc21` (stereo not drawn), the GI50 is 3.38 µM in the experiment on SK-OV-3 ovarian; 2.54 µM in the experiment with SNB-75 CNS; 2.2 µM with HOP-92 NSCLC; 1.78 µM in the experiment with SF-295 CNS; 1.36 µM with HCT-116 colon; 2 µM in the experiment on UACC-257 melanoma. For the same compound, the GI50 in the experiment with OVCAR-8 ovarian is 2.21 µM; in the experiment on SN12C renal, 3.21 µM. The TGI is 9.32 µM in the experiment with SK-OV-3 ovarian; 12.2 µM in the experiment on SNB-75 CNS; 8.02 µM in the experiment on HOP-92 NSCLC; 3.78 µM in the experiment with SF-295 CNS; 2.89 µM in the experiment with HCT-116 colon; 4.35 µM with UACC-257 melanoma. For the same compound, the TGI with OVCAR-8 ovarian worked out at 4.74 µM; with SN12C renal, 13.8 µM.

As to `C/C(=C1/N=C(c2ccccc2)OC1=O)c1cccs1`, the TGI in the experiment with SK-OV-3 ovarian, with SNB-75 CNS, with HOP-92 NSCLC, in the experiment on SF-295 CNS, with HCT-116 colon and with UACC-257 melanoma was more than 100 µM throughout. The TGI with OVCAR-8 ovarian and with SN12C renal was more than 100 µM in each case.
